The structures appear in SMILES notation. Numbered stars: 1 amine (or outer) side, 2 acyl side, 3 side chain; on linkers, the order of the positions; unused ones are H or OH. Bridge positions count the residues as written; N and C are the ends. Square brackets hold non-standard residues; d marks the D form. Peptide text beside a SMILES is read from it. I, II: the chains in the order shown. Actinocin(9to1) = Cc1c2oc3c(C)ccc(C(=O)[*:1])c3nc-2c(C(=O)[*:2])c(N)c1=O; NMeV = CN[C@H](C(=O)O)C(C)C; Sar = CNCC(=O)O

The target of test [1] is T1, Telomerase reverse transcriptase (Homo sapiens, UniProt O14746). Put plainly: Inhibitory activity against telomerase at 50 uM concentration (Compound released from DNA/DNA heteroduplex derivatized resin [sequence (TTAGGG)3).
T1 sequence (O14746 whole entry): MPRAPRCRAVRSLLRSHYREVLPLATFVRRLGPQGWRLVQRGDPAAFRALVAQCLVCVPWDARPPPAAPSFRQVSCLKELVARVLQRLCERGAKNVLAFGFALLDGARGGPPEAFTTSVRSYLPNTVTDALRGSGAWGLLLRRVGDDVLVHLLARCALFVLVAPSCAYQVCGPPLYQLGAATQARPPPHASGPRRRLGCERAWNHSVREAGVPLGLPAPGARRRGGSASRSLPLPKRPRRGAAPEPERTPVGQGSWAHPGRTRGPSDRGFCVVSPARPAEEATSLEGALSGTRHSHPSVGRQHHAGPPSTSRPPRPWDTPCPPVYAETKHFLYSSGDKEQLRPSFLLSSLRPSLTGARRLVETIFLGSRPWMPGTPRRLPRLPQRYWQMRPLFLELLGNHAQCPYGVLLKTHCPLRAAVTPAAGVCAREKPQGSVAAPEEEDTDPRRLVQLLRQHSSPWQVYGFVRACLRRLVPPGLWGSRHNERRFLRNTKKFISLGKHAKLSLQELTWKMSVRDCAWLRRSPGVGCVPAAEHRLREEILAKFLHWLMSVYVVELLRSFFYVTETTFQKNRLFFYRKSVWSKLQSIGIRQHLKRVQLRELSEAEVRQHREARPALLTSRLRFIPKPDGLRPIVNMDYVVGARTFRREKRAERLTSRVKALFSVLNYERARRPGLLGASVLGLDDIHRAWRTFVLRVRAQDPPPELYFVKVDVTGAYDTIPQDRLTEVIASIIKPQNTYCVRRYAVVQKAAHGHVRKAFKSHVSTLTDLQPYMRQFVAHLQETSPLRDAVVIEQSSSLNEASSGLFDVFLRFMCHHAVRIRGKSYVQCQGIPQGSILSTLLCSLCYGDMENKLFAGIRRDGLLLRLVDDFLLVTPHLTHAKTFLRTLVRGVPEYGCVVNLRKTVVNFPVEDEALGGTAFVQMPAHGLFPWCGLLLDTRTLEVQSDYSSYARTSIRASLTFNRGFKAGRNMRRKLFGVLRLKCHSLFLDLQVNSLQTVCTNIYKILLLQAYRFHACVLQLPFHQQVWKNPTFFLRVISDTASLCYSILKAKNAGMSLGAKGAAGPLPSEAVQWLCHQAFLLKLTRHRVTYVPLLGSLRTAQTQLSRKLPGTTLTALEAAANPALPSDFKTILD
For test [2], the target named is T1, Telomerase reverse transcriptase. The test is described as follows: Inhibitory activity against telomerase at 50 uM concentration (Compound released from underivatized resin.
Test [3] shares this target. The test is described as follows: Inhibitory activity against telomerase at 50 uM concentration (Compound released from RNA/DNA heteroduplex derivatized resin [sequence (TTAGGG)3).
For test [4] the target is unchanged. Put plainly: Inhibitory activity against telomerase (Compound released from DNA/DNA heteroduplex derivatized resin [sequence (TTAGGG)3).
Test [5] shares this target. The test is described as follows: Inhibitory activity against telomerase (Compound released from underivatized resin.
For test [6] the target is unchanged. The test is described as follows: Inhibitory activity against telomerase (Compound released from RNA/DNA heteroduplex derivatized resin [sequence (TTAGGG)3).

`Cc1c2oc3c(C)ccc(C(=O)N[C@@H]4C(=O)N[C@H](C(C)C)C(=O)N5CCC[C@H]5C(=O)N(C)CC(=O)N(C)[C@@H](C(C)C)C(=O)O[C@@H]4C)c3nc-2c(C(=O)N[C@@H]2C(=O)N[C@H](C(C)C)C(=O)N3CCC[C@H]3C(=O)N(C)CC(=O)N(C)[C@@H](C(C)C)C(=O)O[C@@H]2C)c(N)c1=O` (I: T[dV]P[Sar][NMeV] / II: T[dV]P[Sar][NMeV]; ester I:1-I:C, II:1-II:C; linker I:N-II:N via Actinocin(9to1)): the inhibition in test [1], in test [2] and in test [3] was below 50% each time.

With `Cc1cc2cc3cc(C)c(N)cc3nc2cc1N`, the concentration for half-maximal inhibition (IC50) in test [4], in test [5] and in test [6] was 21.7 µM throughout.

`COc1cccc2c1C(=O)c1c(O)c3c(c(O)c1C2=O)C[C@@](O)(C(=O)CO)C[C@@H]3O[C@H]1C[C@H](N)[C@H](O)[C@H](C)O1`: the inhibition in test [1], in test [2] and in test [3] was below 50% throughout.

Take `COc1cccc2c1C(=O)c1c(O)c3c(c(O)c1C2=O)C[C@@](O)(C(C)=O)C[C@@H]3O[C@H]1C[C@H](N)[C@H](O)[C@H](C)O1`: the inhibition in test [1], in test [2] and in test [3] was below 50% in each case.

Regarding `Cc1c2oc3c(C)c(N)cc(C(=O)N[C@@H]4C(=O)N[C@H](C(C)C)C(=O)N5CCC[C@H]5C(=O)N(C)CC(=O)N(C)[C@@H](C(C)C)C(=O)O[C@@H]4C)c3nc-2c(C(=O)N[C@@H]2C(=O)N[C@H](C(C)C)C(=O)N3CCC[C@H]3C(=O)N(C)CC(=O)N(C)[C@@H](C(C)C)C(=O)O[C@@H]2C)c(N)c1=O`, the inhibition in test [1], in test [2] and in test [3] was below 50% throughout.

Regarding `CCOc1ccc2nc3cc(N)ccc3c(N)c2c1` [ETHACRIDINE], the half-maximal inhibitory concentration (IC50) in test [4], in test [5] and in test [6] was 8.2 µM throughout.

In the case of `CC[n+]1c(-c2ccccc2)c2cc(N)ccc2c2ccc(N)cc21` [HOMIDIUM BROMIDE], the IC50 in test [4], in test [5] and in test [6] was 3.3 µM throughout.

As for `CN(C)c1ccc2cc3ccc(N(C)C)cc3nc2c1` [ACRIDINE ORANGE], the IC50 in test [4], in test [5] and in test [6] was 12.2 µM throughout.
